The values that follow come from US11311523B2, “Pyridinone compound and use thereof” (KYUSHU UNIVERSITY, NATIONAL UNIVERSITY CORPORATION, priority 2015, dated 2022).

One data set relates to 3LL cells. Nature of the data set: inhibition of macropinocytosis (TMR-dextran uptake). It is filed as cell-based, mouse. How it is done: (§1) Pharmacological Test 5 (Experiment of Inhibition of Macropinocytosis of Cancer Cells)
(§2) Macropinocytosis is a phenomenon in which cells take up various substances together with extracellular fluid while extending cellular membranes. Remodeling of actin cytoskeleton through Rac activity is known to be important.
(§3) One hundred and fifty microliters of 4×10^4 3LL cells or HT-1080 cells were seeded on the glass portion of fibronectin-coated glass-bottom culture dishes. After 16-hour culture at 37° C., the medium was changed to DMEM (serum free) and cultured for 24 hours to allow the cells to be serum-starved. Subsequently, the medium was changed to 2 mL of serum-free medium containing DMSO alone or DMSO in which each pyridinone compound was dissolved, followed by pretreatment for 1 hour. The final concentration of DMSO was adjusted to 0.2%.
(§4) The cells were added to 180 μL of medium with TMR-dextran (final concentration: 500 μg/mL)-containing DMEM (with 10% FBS) containing DMSO alone or DMSO in which a predetermined concentration of each pyridinone compound was dissolved, as in the case above, followed by incubation at 37° C. for 1 hour. Thereafter, the cells were fixed by 60-minute incubation at room temperature in a 4% paraformaldehyde solution. […] The macropinocytosis activity was measured based on the number of TMR-dextran spots per cell. […]

In a further data set the test system is HT-1080 cells. The data set is described as above. It is filed as cell-based, human. The protocol:
as §1, §2, §3, §4

In data set [1] the test system is human colon cancer cell line (DLD-1). The data set is described as follows: cellular invasion inhibition assay (Matrigel chamber). The following applies: FIG. 12(D). Type of data set: cell-based. The protocol:
Pharmacological Test 2 (Cellular Invasion Inhibition Assay)
Three hundred microliters of a suspension of a mouse lung carcinoma cell line (3LL), a human fibrosarcoma cell line (HT-1080), or a human colon cancer cell line (DLD-1) in DMEM (serum free) was placed in the upper chamber with Matrigel (BD Biosciences) equilibrated with DMEM (serum free) for 120 minutes, while 500 μL of DMEM (with 10% FCS) was placed in the lower chamber. Each pyridinone compound or CPYPP dissolved at a predetermined concentration in DMSO was added to the culture media in both the upper and lower chambers. As a control, DMSO alone was added to the media. In all of the experiments, the final DMSO concentration was adjusted to 0.2%.
After the resulting products were cultured at 37° C. under 5% CO2 for 22 hours, the chambers were removed, and the culture media were removed. […] After staining, the inserts were cut out with a blade to prepare slides, and the cells were counted under an optical microscope.
The results were evaluated based on percent cell invasion (%: Invasion) and percent inhibition (%: inhibition). The percent cell invasion was obtained by converting the number of invading cells under each condition to percentage, taking the number of invading cells in the control, to which DMSO was added alone, as 100%; and the percent inhibition was obtained by deducting the percent cell invasion from 100.

The test system of data set [2] is mouse melanoma B16F10 cells. The data set is described as follows: inhibition of lung metastasis of mouse melanoma cells. It is filed as in vivo. The protocol:
(§5) Pharmacological Test 8 (Experiment for Inhibition of Lung Metastasis of Mouse Melanoma Cells)
(§6) Mouse melanoma B16F10 cells suspended in 200 μL of PBS(−) were injected (2.5 or 5×10^5 cells per mouse) into the tail vein of C57BL/6 mice (6 weeks old, female). […] For a control group, an equivalent amount of a solvent (a liquid mixture of PBS/CremophoreEL/ethanol (6:1:1)) alone was administered. The administration was performed 4 times in total: immediately before the cell transplantation, and day 1, day 3, and day 5 after the transplantation. Fourteen days after the first administration, the lung was excised from each mouse, and the number of tumor metastatic foci at the lung surface was counted.

A short description of data set [3]: mouse body weight in the lung metastasis experiment. Type of data set: in vivo. The settings on record: 0.2, 0.6 or 2 mg/mouse iv, FIG. 17(D). How it is done: as §5, §6

Molecules are shown by their SMILES.

For the compound `O=C(Cn1cc(S(=O)(=O)N2CCCC2)ccc1=O)c1ccc(-c2ccc3ccccc3c2)cc1` [TS-28, 1-(2-(4-(naphthalen-2-yl)phenyl)-2-oxoethyl)-5-(pyrrolidin-1-ylsulfonyl)pyridin-2(1H)-one], the inhibition of macropinocytosis entry in the data set on 3LL cells is “inhibit macropinocytosis in 3LL cells and HT-1080 cells in a concentration-dependent manner”; in the data set on HT-1080 cells, “inhibit macropinocytosis in 3LL cells and HT-1080 cells in a concentration-dependent manner”.

On to `O=C(Cn1cc(S(=O)(=O)N2CCCC2)ccc1=O)c1ccc(-c2cccc(C(F)(F)F)c2)cc1` [TS-45, 1-(2-oxo-2-(3′-(trifluoromethyl)-[1,1′-biphenyl]-4-yl)ethyl)-5-(pyrrolidin-1-ylsulfonyl)pyridin-2(1H)-one], for which the “inhibition of DLD-1 cell invasion” value in data set [1] is given as “inhibits DLD-1 cell invasion”. Also, the inhibition of macropinocytosis entry with 3LL cells was “inhibit macropinocytosis in 3LL cells and HT-1080 cells in a concentration-dependent manner”; in the data set on HT-1080 cells, “inhibit macropinocytosis in 3LL cells and HT-1080 cells in a concentration-dependent manner”. Besides, the “metastasis of melanoma cells to the lung” value in data set [2] (C57BL/6 mice, 2 mg/mouse iv, 4 times, FIG. 17(B)) is recorded as “significantly inhibited”. Besides, the “number of cells that underwent metastasis to the lung, reduced to” value in data set [2] (dose of about 0.2 mg to a mouse, iv 4 times, FIG. 17(C)) is recorded as “about 20%”. In data set [3], the mouse body weight result is “not affected”.
